Measurements reported in patent publication US8008540B2, “Transgenic non-human animal for use in research models for studying Parkinson's disease” (Kampavata AB, priority 2004, dated 2011).
“Also recorded” adds a separate entry of the source.

Test system: homozygous knockout mice (+/DAT-cre; Tfam^loxP/Tfam^loxP)
Experiment: L-DOPA treatment, open field activity cages (locomotion and rearing)
Format: in vivo, mouse
Method: Open field activity was examined in automated activity cages. This consisted of Plexiglas boxes (35×35×18 cm) with a lower and a higher row of infrared sensitive photocells and a microcomputer registering interruption of photocell beams. Animals were tested during the light phase of the light-dark cycle, between 9:00 and 13:00 h. Locomotor activity was registered when animals interrupted the lower row of photocells and rearing was registered when the higher row was interrupted. Animals were individually placed gently in the open field arena and remained there during 60 min. Locomotion and rearing counts were registered every 10 min. For the L-DOPA treatment, spontaneous locomotion and rearing were measured in activity cages as above. Animals were then given i.p. injections of L-DOPA combined with the peripheral dopa decarboxylase inhibitor benzerazide (Madopark 20 mg/kg in PBS; Roche) or PBS and were then immediately put back into the activity cages for another 60 minutes of recording. The scoring of counts was given as mean+/−SEM. Statistical significance was tested using 2-way ANOVA analysis. The open field box was cleaned with 70% alcohol after each test.

[1] = 20 and 30 week old homozygous knockout mice, L-DOPA 20 mg/kg i.p. vs saline, 60 min recording

N[C@@H](Cc1ccc(O)c(O)c1)C(=O)O [L-DOPA]
motor performance (20 and 30 week old homozygous knockout mice): improved motor performance | locomotion [1]: increased locomotion | rearing [1]: increase in rearing was similar; also recorded: increase of rearing | progressive movement disorder (Parkinson mouse model, L-DOPA treatment): partially reversed | locomotor response, course over time (older (30 week old) homozygous knockout mice): abruptly terminated | locomotion response, younger vs older mice (younger (20 week old) homozygous knockout mice, identical L-DOPA dose): more pronounced and longer lasting locomotion response; also recorded: greater locomotion response
